Measurements published in patent US10220024B2, “Method of inhibiting cancer cell, method for detecting cancer cell, and system for detecting cancer cell” (CANON KABUSHIKI KAISHA, priority 2012, dated 2019).
Like-named read-outs stand apart in the source and are kept apart here.

Legend:
[1] = tested on: K562 ALDH (−) fraction (general cancer cells); test: Cancer stem-cell selective inhibitory action against chronic myelocytic leukemia cells, ALDH (−) fraction, CellTiter-Glo; format: cell-based, Human; settings: for activity at 10 µg/mL: 10 μg/ml
Description: (§1) Human chronic myelocytic leukemia cells, K562, were pre-cultured in RPMI1640 medium containing 10% FBS at 37° C. in a 5% CO2 ambient. Then, a fraction containing 80% or more of cancer stem cells was extracted by use of ALDEFLUOR reagent (manufactured by VERITAS Corporation) and FACSAria flow cytometry (manufactured by Nippon Becton, Dickinson and Company). Subsequently, Compound (5) was added to the medium so as to obtain a final concentration of 10 μg/mL and cultured at 37° C. for 24 hours in a 5% CO2 ambient. The cultured cells were analyzed for viable cell count according to CellTiter-Glo Luminescent Cell Viability Assay (manufactured by Promega KK.). As a reference, the number of cells cultured in a medium containing a 0.1% dimethylsulfoxide solution (hereinafter, simply referred to as DMSO) in place of a medium containing Compound (1), in the aforementioned operation, was used as 0.1. Note that hereinafter, an ALDEFLUOR reagent positive fraction (deemed as cancer stem cells) is represented by ALDH (+), whereas an ALDEFLUOR reagent negative fraction (not deemed as cancer stem cells) is represented by ALDH (−), in some cases.
(§2) The same operation as in Experimental Example 12 was repeated except that Compound (5) in Experimental Example 12 was changed to the compounds shown in Table 4 and final concentrations shown in Table 4 were used and viable cell counts were separately analyzed. Note that the growth rate in Examples herein is a numerical value of the number of cells obtained after culture relative to the number of cells (regarded as 0.1) grown in a medium containing 0.1% DMSO.
(§3) The same operation as in Experimental Example 12 was repeated except that Compound (5) in Experimental Example 12 was changed to Imatinib (manufactured by NOVARTIS), which is a general anticancer drug, and comparative compounds shown in Table 4 and final concentrations shown in Table 4 were used and viable cell counts were separately analyzed.
(§4) The growth suppressive effect of cancer stem cells was evaluated based on the following criteria. Note that the growth rate in Examples herein is a numerical value relative to the number of cells (regarded as 0.1) grown in a medium containing 0.1% DMSO. • A: The value of ALDH (+) is less than 0.5 (growth suppressive effect against cancer stem cells is extremely high) • B: The value of ALDH (+) is 0.5 or more and less than 0.95 (growth suppressive effect against cancer stem cells is high) • C: The value of ALDH (+) is 0.95 or more (no growth suppressive effect against cancer stem cells)
(§5) Furthermore, superiority of cancer stem cells was evaluated by comparing cancer stem cells to cancer cells based on the following criteria. ALDH (+) represents cancer stem cells; whereas ALDH (−) represents general cancer cells. • A: The value of ALDH (+)/ALDH (−) is less than 0.8 (selective inhibitory effect against cancer stem cells is extremely high) • B: The value of ALDH (+)/ALDH (−) is 0.8 or more and less than 0.95 (selective inhibitory effect against cancer stem cells is high) • C: The value of ALDH (+)/ALDH (−) is 0.95 or more (no selective inhibitory effect against cancer stem cells)

[2] = tested on: Human pancreas cancer cells, KLM-1; test: Cancer cell inhibitory (growth suppressive) action against pancreatic cancer cells, CellTiter-Glo viable cell count; format: cell-based; settings: KLM1, KLM-1, 10 μg/mL, 24 hours
Description: (§6) Observation on cancer cell inhibitory (growth suppressive) action against pancreatic cancer cells Human pancreas cancer cells, KLM-1, were pre-cultured in RPMI1640 medium containing 10% FBS at 37° C. in a 5% CO2 ambient. Thereafter, 4,000 cells were seeded per well of a 96-well plate and further cultured for 24 hours. Subsequently, Compound (1) was added to the medium so as to obtain a final concentration of 10 μg/mL and cultured at 37° C. for 24 hours in a 5% CO2 ambient. The cultured cells were analyzed for viable cell count according to CellTiter-Glo Luminescent Cell Viability Assay (manufactured by Promega KK.). As a reference, the number of cells cultured in a medium containing a 0.1% dimethylsulfoxide solution (hereinafter, simply referred to as DMSO) in place of a medium containing Compound (1), in the aforementioned operation, was regarded (100%).
Viable cell count was analyzed in the same manner as in Experimental Example 1 except that Compound (1) of Experimental Example 1 was changed to compounds shown in Table 2.
Viable cell count was analyzed in the same manner as in Experimental Example 1 except that Compound (1) was changed to comparative compounds 1 to 4.
Viable cell counts of Experimental Examples 1 to 7 and Comparative Examples 1 to 4 were analyzed to obtain growth rates.
Evaluation of cancer cell inhibition against the pancreatic cancer cells (KLM-1) (growth suppression) was made based on the following criteria. Note that the growth rate in Examples herein is a numerical value of the number of cells obtained after culture relative to the number of cells (regarded as 100) grown in a medium containing 0.1% DMSO. Evaluation of cancer cell inhibition against the pancreatic cancer cells (KLM-1) was made as follows. • A: Cancer cell growth rate is less than 20% (cancer cell inhibitory (growth suppressive) effect is extremely high) • B: Cancer cell growth rate is 20% or more and less than 50% (cancer cell inhibitory (growth suppressive) effect is high) • C: Cancer cell growth rate is 50% or more (cancer cell inhibitory (growth suppressive) effect is low)

[3] = tested on: Prostatic cancer cells, PC-3; test: Cancer cell inhibitory (growth suppressive) action against prostatic cancer cells, CellTiter-Glo viable cell count; format: cell-based; settings: PC-3, 10 μg/mL, 24 hours
Description: as §6, with “Prostatic” for “Observation on cancer cell inhibitory (growth suppressive) action against pancreatic cancer cells Human pancreas”, “PC-3,” for “KLM-1,”, “(11)” for “(1)”, “(11),” for “(1),”, “used as 100.” for “regarded (100%).”
Viable cell count was analyzed in the same manner as in Experimental Example 8 except that the compounds shown in Table 3 were used in place of Compound (11) of Experimental Example 8.
Viable cell count was analyzed in the same manner as in Experimental Example 8 except that comparative compounds 1 to 4 were used in place of Compound (11) of Experimental Example 8.
The growth rate in Examples herein is a numerical value of the number of cells obtained after culture relative to the number of cells (regarded as 100) grown in a medium containing 0.1% DMSO.
Evaluation of cancer cell inhibition against the prostatic cancer cells (PC-3) was made as follows. • A: Cancer cell growth rate is less than 20% (cancer cell inhibitory (growth suppressive) effect is extremely high) • B: Cancer cell growth rate is 20% or more and less than 50% (cancer cell inhibitory (growth suppressive) effect is high) • C: Cancer cell growth rate is 50% or more (cancer cell inhibitory (growth suppressive) effect is low)

[4] = tested on: K562 ALDH (+) fraction (cancer stem cells); test: Cancer stem-cell selective inhibitory action against chronic myelocytic leukemia cells, ALDH (+) fraction, CellTiter-Glo; format: cell-based; settings: Homo sapiens, 24 hours; for activity at 10 µg/mL: 10 μg/ml; for activity at 0.12 µg/mL: 0.12 μg/ml; for activity at 0.24 µg/mL: 0.24 μg/ml; for activity at 0.35 µg/mL: 0.35 μg/ml; for activity at 0.47 µg/mL: 0.47 μg/ml; for activity at 0.59 µg/mL: 0.59 μg/ml
Description: as §1, §2, §3, §4, §5

[5] = Measurement of fluorescent property of compound (spectrofluorometer); format: physicochemical; settings: 5 μM DMSO solution
Description: The excitation wavelength and fluorescence wavelength of the compound were measured by a FL4500 spectrofluorometric measuring machine manufactured by Hitachi High-Technologies Corporation.

[6] = tested on: K562-BFP human chronic myelocytic leukemia cells transplanted to zebra young fish; test: Cancer metastasis suppressive effect in metastatic foci of cancer cells transplanted to zebra young fish; format: in vivo; settings: metastatic foci (region within 300 to 450 μm from a transplanted tumor); for Evaluation (inhibition rate in metastatic foci): 0.5 μm in breeding water; for Inhibition rate: final concentration of 0.5 μm in breeding water, 100×(1-F1/F0) versus DMSO
Text: From cell strain K562-BFP, which is a strain of human chronic myelocytic leukemia cells having fluorescent protein TagBFP constantly expressed, a fraction (ALDH (+)) containing 80% or more of cancer stem cells was extracted by use of a cancer stem cell marker, ALDEFLUOR reagent (manufactured by VERITAS Corporation) and FACSAria flow cytometry (manufactured by Nippon Becton, Dickinson and Company). The ALDH (+) fraction and a ALDH (−) fraction of general cancer cells were transplanted separately to zebra young fish (MieKomachi lineage, 2 days after fertilization) and the fish were raised in a 32° C. environment. Furthermore, 24 hours after transplantation, Compound (16) was added to breeding water so as to obtain a final concentration of […] and fish were raised for two days in a 32° C. environment. Cells transplanted to the zebra young fish were observed under MZ16F fluorescent stereoscopic microscope (manufactured by Leica Microsystems) and a fluorescent image of the cells after 24 hours was photographed and then fluorescent intensity was quantified.
As a reference, the fluorescent intensity of cells, which were cultured in the same operation method as above in a medium containing a 0.1% DMSO solution in place of Compound (16), was used.
Fluorescent images were photographed in the same manner as in Experimental Example 29 except that Imatinib and Dasatinib were respectively used in place of the compound (16) in Experimental Example 29.
The inhibition rate herein was obtained according to the expression: 100×(1-F1/F0), where the fluorescent intensity of cells when a test substance was added is represented by F1, and the fluorescent intensity of cells when a reference substance (DMSO) was added is represented by F0.
The growth suppressive effect in metastatic foci (region within 300 to 450 μm from a transplanted tumor) of cancer stem cells was evaluated based on the following criteria. • A: Inhibition rate is 70 or more (growth suppressive effect against metastatic foci (region within 300 to 450 μm from a transplanted tumor) of cancer stem cells is extremely high) • B: Inhibition rate is 50 or more and less than 70 (growth suppressive effect against metastatic foci (region within 300 to 450 μm from a transplanted tumor) of cancer stem cells is high) • C: Inhibition rate is less than 50 (growth suppressive effect against metastatic foci (region within 300 to 450 μm from a transplanted tumor) of cancer stem cells is low)

[7] = Homo sapiens, 24 hours, relative to 0.1% DMSO, read-out: ALDH(−) (growth rate)
[8] = read-out: Evaluation (cancer cell growth rate)
[9] = relative to 0.1% DMSO (100), read-out: Cancer cell growth rate (%)
[10] = read-out: Growth suppression evaluated
[11] = relative to 0.1% DMSO, read-out: ALDH(+) (growth rate)

| Excitation wavelength λex [5] | Fluorescence wavelength λem [5] | Compound | activity at 10 µg/mL [1, 7] | activity at 10 µg/mL [2, 8] | activity at 10 µg/mL [2, 9] | activity at 10 µg/mL [3, 8] | activity at 10 µg/mL [3, 9] | activity at 10 µg/mL [4, 10] | activity at 10 µg/mL [4, 11] | Evaluation (inhibition rate in metastatic foci) [6] | Inhibition rate [6] | further results |
| --- | --- | --- | --- | --- | --- | --- | --- | --- | --- | --- | --- | --- |
| 568 nm | 643 nm | CC[N+]1=C(/C=c2\s/c(=C/c3ccc4c(c3)C3CCCC3N4c3ccccc3)c(=O)n2CC(=O)O)C(C)(C)c2ccccc21 (centres unmarked) [Compound 15] | 26% | < 20% | 9% | < 20% | 7.1% | < 50% | 21% |  |  |  |
| 493 nm | 585 nm | CCn1c2ccccc2c2cc(/C=c3/s/c(=C\C4=[N+](CC)c5ccccc5C4(C)C)n(CC(=O)O)c3=O)ccc21 [Compound 20] | 25% | 20 to 50% | 22.3% | < 20% | 4.8% | < 50% | 14% |  |  |  |
|  |  | Cc1nc(Nc2ncc(C(=O)Nc3c(C)cccc3Cl)s2)cc(N2CCN(CCO)CC2)n1 [Dasatinib] |  |  |  |  |  |  |  | C (Inhibition rate is less than 50) | 36 |  |
|  |  | Cc1ccc(NC(=O)c2ccc(CN3CCN(C)CC3)cc2)cc1Nc1nccc(-c2cccnc2)n1 [Imatinib, reference compound] |  |  |  |  |  |  |  | B (Inhibition rate is 50 or more and less than 70) | 60 | inhibitory effect against general cancer cells, in words [1]: an inhibitory effect against general cancer cells was observed; activity at 0.12 µg/mL ([1]; Homo sapiens, 0.12 μg/ml, 24 hours, relative to 0.1% DMSO, read-out: ALDH(−) (growth rate)): 51%; activity at 0.24 µg/mL ([1]; Homo sapiens, 0.24 μg/ml, 24 hours, relative to 0.1% DMSO, read-out: ALDH(−) (growth rate)): 40%; activity at 0.35 µg/mL ([1]; Homo sapiens, 0.35 μg/ml, 24 hours, relative to 0.1% DMSO, read-out: ALDH(−) (growth rate)): 32%; activity at 0.47 µg/mL ([1]; Homo sapiens, 0.47 μg/ml, 24 hours, relative to 0.1% DMSO, read-out: ALDH(−) (growth rate)): 22%; activity at 0.59 µg/mL ([1]; Homo sapiens, 0.59 μg/ml, 24 hours, relative to 0.1% DMSO, read-out: ALDH(−) (growth rate)): 11%; activity at 0.12 µg/mL [4, 10]: 50 to 95%; activity at 0.12 µg/mL [4, 11]: 74%; activity at 0.24 µg/mL [4, 10]: 50 to 95%; activity at 0.24 µg/mL [4, 11]: 59%; activity at 0.35 µg/mL [4, 10]: < 50%; activity at 0.35 µg/mL [4, 11]: 48%; activity at 0.47 µg/mL [4, 10]: < 50%; activity at 0.47 µg/mL [4, 11]: 36%; activity at 0.59 µg/mL [4, 10]: < 50%; activity at 0.59 µg/mL [4, 11]: 31% |
